Data taken from ChEMBL document CHEMBL1201862, “PubChem BioAssay data set” (2004).
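In this assay, cells in 96-well plates receive the compound at five concentrations for 48 hours. Endpoints are linearly interpolated between the surrounding concentrations. GI50: concentration for 50% inhibition of growth.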 The source made the active and inactive calls. Cut-off read from the data, not from the text of the source: active = GI50 up to about 1.1 µM and inactive = higher.

Key:
Assay in all cases: NCI-60 cell line screen, 48 h
[1] = test system: 786-0
[2] = test system: A498
[3] = test system: A549
[4] = test system: BT-549
[5] = test system: CCRF-CEM
[6] = test system: COLO 205
[7] = test system: HL-60
[8] = test system: KM12
[9] = test system: M14
[10] = test system: MOLT-4
[11] = test system: Malme-3M
[12] = test system: NCI-H23
[13] = test system: OVCAR-5
[14] = test system: SF-268
[15] = test system: SF-295
[16] = test system: SK-MEL-28
[17] = test system: SK-MEL-2
[18] = test system: SW-620
[19] = test system: T47D

Row | Structure (SMILES) | GI50 [1] | GI50 [2] | GI50 [3] | GI50 [4] | GI50 [5] | GI50 [6] | GI50 [7] | GI50 [8] | GI50 [9] | GI50 [10] | GI50 [11] | GI50 [12] | GI50 [13] | GI50 [14] | GI50 [15] | GI50 [16] | GI50 [17] | GI50 [18] | GI50 [19]
1 | CCOC(=O)C1=CNC2=N[C@H]3CCCC[C@@H]3N2C1=O | > 100 µM (inactive) | > 100 µM (inactive) | > 100 µM (inactive) | > 100 µM (inactive) | > 100 µM (inactive) | > 100 µM (inactive) | > 100 µM (inactive) | > 100 µM (inactive) | > 100 µM (inactive) | > 100 µM (inactive) | > 100 µM (inactive) | > 100 µM (inactive) | > 100 µM (inactive) | > 100 µM (inactive) | > 100 µM (inactive) | > 100 µM (inactive) | > 100 µM (inactive) | > 100 µM (inactive) | > 100 µM (inactive)
2 | Cc1cc(C)c2c(O)c(S(=O)(=O)c3ccc(Cl)cc3)c(=O)oc2c1 | 78.2 µM (inactive) | > 100 µM (inactive) | 46.3 µM (inactive) | 67.9 µM (inactive) | 42.5 µM (inactive) | > 100 µM (inactive) | 52.8 µM (inactive) | 36.1 µM (inactive) | 34.3 µM (inactive) | – | 59.7 µM (inactive) | 84.1 µM (inactive) | 93.1 µM (inactive) | 40.2 µM (inactive) | 36.5 µM (inactive) | 51.9 µM (inactive) | 32.7 µM (inactive) | 68.7 µM (inactive) | 99.8 µM (inactive)
3 | CNC(=O)CC1NC(=O)c2csc(n2)-c2ccc(-c3nc(C4=NC(C(=O)N5CCCC5C(N)=O)CO4)cs3)nc2-c2csc(n2)-c2csc(n2)C(C(C)C)NC(=O)CNC(=O)c2csc(n2)C(C(C)C)NC(=O)c2nc1sc2C (stereo not drawn) | 0.0214 µM (active) | 0.0923 µM (active) | 0.00724 µM (active) | 0.0268 µM (active) | 0.00527 µM (active) | 0.00126 µM (active) | > 25 µM (inactive) | 0.0171 µM (active) | 0.0123 µM (active) | 0.00728 µM (active) | > 25 µM (inactive) | 0.00239 µM (active) | 0.0271 µM (active) | 0.0625 µM (active) | 0.021 µM (active) | > 25 µM (inactive) | 0.0155 µM (active) | 0.00962 µM (active) | 0.0033 µM (active)
4 | Cc1cn([C@@H]2C[C@@H]2CO)c(=O)[nH]c1=O | > 100 µM (inactive) | > 100 µM (inactive) | > 100 µM (inactive) | > 100 µM (inactive) | > 100 µM (inactive) | > 100 µM (inactive) | > 100 µM (inactive) | > 100 µM (inactive) | > 100 µM (inactive) | > 100 µM (inactive) | > 100 µM (inactive) | > 100 µM (inactive) | > 100 µM (inactive) | > 100 µM (inactive) | – | > 100 µM (inactive) | > 100 µM (inactive) | > 100 µM (inactive) | > 100 µM (inactive)
5 | CCN(CC)CCNc1nc(N)c(C#N)c(C#N)c1C#N | > 10 µM (inactive) | > 10 µM (inactive) | > 10 µM (inactive) | > 10 µM (inactive) | > 10 µM (inactive) | > 10 µM (inactive) | > 10 µM (inactive) | > 10 µM (inactive) | > 10 µM (inactive) | > 10 µM (inactive) | > 10 µM (inactive) | > 10 µM (inactive) | > 10 µM (inactive) | > 10 µM (inactive) | > 10 µM (inactive) | > 10 µM (inactive) | – | > 10 µM (inactive) | > 10 µM (inactive)
6 | COC(=O)C1(CCC(=O)N(C)c2ccccc2)NNC2C(=O)N(c3ccccc3)C(=O)C21 (stereo not drawn) | > 10 µM (inactive) | > 10 µM (inactive) | > 10 µM (inactive) | > 10 µM (inactive) | > 10 µM (inactive) | > 10 µM (inactive) | > 10 µM (inactive) | > 10 µM (inactive) | > 10 µM (inactive) | – | > 10 µM (inactive) | > 10 µM (inactive) | > 10 µM (inactive) | > 10 µM (inactive) | > 10 µM (inactive) | > 10 µM (inactive) | > 10 µM (inactive) | > 10 µM (inactive) | > 10 µM (inactive)
7 | COC(=O)Nc1nc2cc(NC(=O)c3ccc(I)cc3)ccc2[nH]1 | > 100 µM (inactive) | > 100 µM (inactive) | > 100 µM (inactive) | > 100 µM (inactive) | > 100 µM (inactive) | > 100 µM (inactive) | > 100 µM (inactive) | > 100 µM (inactive) | > 100 µM (inactive) | > 100 µM (inactive) | 72.6 µM (inactive) | > 100 µM (inactive) | > 100 µM (inactive) | > 100 µM (inactive) | > 100 µM (inactive) | > 100 µM (inactive) | > 100 µM (inactive) | > 100 µM (inactive) | > 100 µM (inactive)
8 | CCOC(=O)c1cccc([N+](=O)[O-])c1N | > 100 µM (inactive) | 66.2 µM (inactive) | > 100 µM (inactive) | > 100 µM (inactive) | > 100 µM (inactive) | > 100 µM (inactive) | > 100 µM (inactive) | > 100 µM (inactive) | > 100 µM (inactive) | > 100 µM (inactive) | 19.1 µM (inactive) | > 100 µM (inactive) | > 100 µM (inactive) | – | > 100 µM (inactive) | > 100 µM (inactive) | > 100 µM (inactive) | > 100 µM (inactive) | > 100 µM (inactive)
9 | Cc1c(C#N)c2nnn(-c3ccc([N+](=O)[O-])cc3)c(=O)n2c1-c1ccccc1 | 12.2 µM (inactive) | 5.64 µM (inactive) | 10.1 µM (inactive) | 14.6 µM (inactive) | 5.98 µM (inactive) | 10.4 µM (inactive) | 14.7 µM (inactive) | 5.6 µM (inactive) | 11.4 µM (inactive) | – | 14.7 µM (inactive) | 3.9 µM (inactive) | 17.1 µM (inactive) | 14.7 µM (inactive) | 3.57 µM (inactive) | 19.2 µM (inactive) | 9.57 µM (inactive) | 10.2 µM (inactive) | 3.49 µM (inactive)
10 | C=CCN1C(=O)CS/C1=N\NC(=O)CSc1nc2ccccc2c(=O)n1CC | > 100 µM (inactive) | 35 µM (inactive) | > 100 µM (inactive) | > 100 µM (inactive) | > 100 µM (inactive) | > 100 µM (inactive) | > 100 µM (inactive) | > 100 µM (inactive) | > 100 µM (inactive) | > 100 µM (inactive) | > 100 µM (inactive) | > 100 µM (inactive) | 84.1 µM (inactive) | > 100 µM (inactive) | > 100 µM (inactive) | > 100 µM (inactive) | > 100 µM (inactive) | > 100 µM (inactive) | > 100 µM (inactive)
11 | CCCCNC1CCC2(SCCS2)c2[nH]c3ccccc3c21 (stereo not drawn) | 4.53 µM (inactive) | 20.8 µM (inactive) | 56.9 µM (inactive) | 23.4 µM (inactive) | 3.2 µM (inactive) | 17.5 µM (inactive) | 3.16 µM (inactive) | 6.37 µM (inactive) | 17.1 µM (inactive) | 3.97 µM (inactive) | 16.5 µM (inactive) | 32 µM (inactive) | 59.7 µM (inactive) | 19.9 µM (inactive) | 34.5 µM (inactive) | 34.3 µM (inactive) | – | 25.8 µM (inactive) | 2.56 µM (inactive)
12 | O=C(Nc1ccc(F)cc1)c1cc2ccc(O)cc2o/c1=N\c1cccc(F)c1 | 39.9 µM (inactive) | 43 µM (inactive) | – | 30.6 µM (inactive) | 15.2 µM (inactive) | > 100 µM (inactive) | 27.3 µM (inactive) | 29.9 µM (inactive) | – | 27.9 µM (inactive) | 20.2 µM (inactive) | 19.9 µM (inactive) | > 100 µM (inactive) | 43.1 µM (inactive) | 43.9 µM (inactive) | 45.7 µM (inactive) | 42.2 µM (inactive) | 41.5 µM (inactive) | 31.5 µM (inactive)
13 | COC(=O)c1ccc(/C=N/c2ccc(S(N)(=O)=O)cc2)cc1 | 57.1 µM (inactive) | > 100 µM (inactive) | > 100 µM (inactive) | > 100 µM (inactive) | 30.8 µM (inactive) | > 100 µM (inactive) | 97.1 µM (inactive) | > 100 µM (inactive) | 53.5 µM (inactive) | 38.4 µM (inactive) | 85.5 µM (inactive) | 0.0188 µM (active) | > 100 µM (inactive) | > 100 µM (inactive) | > 100 µM (inactive) | > 100 µM (inactive) | 22 µM (inactive) | – | > 100 µM (inactive)
14 | CCOC(=O)Nc1cc2c(c(N)n1)N=C(c1ccccc1)CN2 | < 0.01 µM (active) | 0.31 µM (active) | < 0.01 µM (active) | < 0.01 µM (active) | < 0.01 µM (active) | < 0.01 µM (active) | < 0.0001 µM (active) | < 0.01 µM (active) | < 0.01 µM (active) | < 0.01 µM (active) | 16.4 µM (inactive) | < 0.01 µM (active) | < 0.01 µM (active) | < 0.01 µM (active) | < 0.01 µM (active) | 14.5 µM (inactive) | – | < 0.01 µM (active) | 37.3 µM (inactive)
15 | C[C@]12CC[C@@H]3c4ccc(OS(N)(=O)=O)cc4CC[C@H]3[C@@H]1CCC2=O [EMATE] | 53.3 µM (inactive) | 97.1 µM (inactive) | 35 µM (inactive) | 45 µM (inactive) | 39 µM (inactive) | 38.7 µM (inactive) | 33 µM (inactive) | 30.5 µM (inactive) | 38.9 µM (inactive) | – | 45.6 µM (inactive) | 37.8 µM (inactive) | > 100 µM (inactive) | 32.9 µM (inactive) | 36.4 µM (inactive) | 95.1 µM (inactive) | 37.5 µM (inactive) | 44.6 µM (inactive) | 29 µM (inactive)
